Among the data in patent publication US20060148694A1, “Inhibition of stress-induced ligand-dependent egfr activation” (Max-Planck-Gesellschaft zur Foerderung der Wessenschaften. …, priority 2003, published 2006) are p38 activation values, retold here.

The assay relates to p38. As to the kind of experiment: p38 activation immunoblot in TCC-Sup cells after doxorubicin. In kind it is cell-based, human. The note with it: doxorubicin treatment, FIG. 7A. Here is the method:
FIG. 7. Doxorubicin-induced cell death of TCC-Sup carcinoma cells. (A) p38 activation in response to doxorubicin treatment. TCC-Sup cells were seeded and treated with doxorubicin for the indicated time points. After cell lysis, p38 activation was assessed by immunoblotting cell extracts with anti-phospho-p38 antibody and reprobing of the same filters with anti-p38 antibody. (B) Blockade of HB-EGF function enhances cell-death in response to doxorubicin. Cells were treated for 72 h with 10 μM doxorubicin and 10 μg/mL Crm197 every 24 h as indicated. After collection of cells in assay buffer, nuclei were stained with PI and analyzed by flow cytometric analysis.
Cells were lysed and proteins immunoprecipitated as described before (Daub et al., 1997). Prior to lysis, cells grown to 80% confluence were treated with inhibitors and agonists as indicated in the figure legends and then lysed for 10 min on ice in buffer containing 50 mM HEPES, pH 7.5, 150 mM NaCl, 1% Triton X-100, 1 mM EDTA, 10% glycerol, 10 mM sodium pyrophosphate, 2 mM sodium orthovanadate, 10 mM sodium fluoride, 1 mM phenylmethylsulfonyl fluoride, and 10 μg/mL aprotinin. Lysates were precleared by centrifugation at 13,000 rpm for 10 min at 4° C. […] Phosphotyrosine was detected with the 4G10 monoclonal antibody (UBI, Lake Placid, N.Y.). […]

As for `COc1cccc2c1C(=O)c1c(O)c3c(c(O)c1C2=O)C[C@@](O)(C(=O)CO)C[C@@H]3O[C@H]1C[C@H](N)[C@H](O)[C@H](C)O1` [doxorubicin], the p38 activation entry is listed as “induces p38 activation”.
